# Measurements: patent US20200337337A1, “ANIMAL FEED COMPOSITIONS COMPRISING MURAMIDASE AND USES THEREOF” (DSM IP ASSETS B.V., priority 2017, published 2020)
# Marks after values point to notes of the source that are not given here.
# System: male broiler chickens (Cobb 500)
# Assay: Experiment in vivo 1: apparent ileal digestibility of crude protein, fat and energy
# Conditions: supplemented feed: B Zn-Bacitracin 50 mg/kg; C Muramidase 40 000 U/g; Cobb 500 broilers
# Text: Day-old male broiler chickens (Cobb 500) were supplied by a commercial hatchery (Joseph Grelier S. A., Elevage avicole de la Bohadière, F-49290 Saint-Laurent de la Plaine, France).
# On the day of arrival (day 1), the chickens were divided by weight into groups of 18 birds. Each group was placed in one floor-pen littered with wood shavings and allocated to one of the different treatments.
# Each treatment was replicated with 12 groups. The chickens were housed in an environmentally controlled room. The room temperature was adapted to the age of the birds. In the first few days an additional infra-red electric heating lamp was placed in each pen. Moreover, in the first week feed was offered to the birds as crumbled pellets, afterwards as pelleted feed. The birds had free access to feed and water.
# The experimental diets (Starter and Grower) were based on soybean meal, wheat and rye (12%) as main ingredients (Table 2). The diets were formulated to contain 210 g crude protein and 12.5 MJ/kg MEN for the starter period and 190 g crude protein and 12.9 MJ/kg MEN for the grower period.
# The diets were fed either unsupplemented (negative control) or supplemented with Muramidase and Zn-Bacitracin as follows:
# Appropriate amount of the solid product (Zn-Bacitracin) was mixed with a small quantity of the basal feed as a premix which was then added to the feed to get the final concentration, according to the treatments. After mixing the feed was pelleted (3×25 mm) at about 70° C.
# Appropriate amount of the liquid preparations of Muramidase was diluted in water and sprayed onto the respective pelleted feed to get the final concentrations in the feed corresponding to the different treatments. For procedural balance of all treatments the same volume of water were also sprayed onto the pellets of the control diets. […]
# Energy determinations were performed using an IKA®-Werke calorimeter (C 2000 basic). TiO2 concentration in feed and digesta were determined by Induction Coupled Plasma (ICP) according to DIN EN ISO 11885:1997 (DIN EN ISO 1998) after H2SO4/Na2SO4 mineralization. […]
substance,measurement,value
Zn-Bacitracin,Apparent ileal digestibility Energy (%),90.1^a %
same,Apparent ileal digestibility Fat (%),82.2^a %
same,Apparent ileal digestibility Protein (%),76.3^a %
